The text below walks through data of ChEMBL document CHEMBL4177643, “Trisubstituted purine inhibitors of PDGFRα and their antileukemic activity in the human eosinophilic cell line EOL-1” (Bioorg Med Chem, 2017).

Test [1] has as its system EOL1. The experiment in a line: Cell cycle arrest in human EOL-1 cells assessed as accumulation at G2/M phase at 0.008 uM after 24 hrs by propidium iodide staining-based flow cytometry (reference value: 18.4%). Format: functional. (A flow cytometer gives signals particle by particle.)
Test [2] deals with EOL1. The experiment in a line: Cell cycle arrest in human EOL-1 cells assessed as accumulation at S phase at 0.008 uM after 24 hrs by propidium iodide staining-based flow cytometry (reference value: 20.7%). Format: functional.
The subject of test [3] is EOL1. The test is described as follows: Cell cycle arrest in human EOL-1 cells assessed as accumulation at S phase at 0.04 uM after 24 hrs by propidium iodide staining-based flow cytometry (reference value: 20.7%). Type of test: functional.
For test [4], the target named is Platelet-derived growth factor receptor alpha (Homo sapiens, UniProt P16234). The test is described as follows: Inhibition of recombinant human N-terminal GST-His6 tagged PDGFRalpha (Q551 to L1089 residues) expressed in Sf9 insect cells using poly(Ala,Glu,Lys,Tyr)6:2:5:1 hydrobromide as substrate in presence of [gamma-33P]ATP.
Chain of Platelet-derived growth factor receptor alpha (P16234 whole entry, the tested form may be a part): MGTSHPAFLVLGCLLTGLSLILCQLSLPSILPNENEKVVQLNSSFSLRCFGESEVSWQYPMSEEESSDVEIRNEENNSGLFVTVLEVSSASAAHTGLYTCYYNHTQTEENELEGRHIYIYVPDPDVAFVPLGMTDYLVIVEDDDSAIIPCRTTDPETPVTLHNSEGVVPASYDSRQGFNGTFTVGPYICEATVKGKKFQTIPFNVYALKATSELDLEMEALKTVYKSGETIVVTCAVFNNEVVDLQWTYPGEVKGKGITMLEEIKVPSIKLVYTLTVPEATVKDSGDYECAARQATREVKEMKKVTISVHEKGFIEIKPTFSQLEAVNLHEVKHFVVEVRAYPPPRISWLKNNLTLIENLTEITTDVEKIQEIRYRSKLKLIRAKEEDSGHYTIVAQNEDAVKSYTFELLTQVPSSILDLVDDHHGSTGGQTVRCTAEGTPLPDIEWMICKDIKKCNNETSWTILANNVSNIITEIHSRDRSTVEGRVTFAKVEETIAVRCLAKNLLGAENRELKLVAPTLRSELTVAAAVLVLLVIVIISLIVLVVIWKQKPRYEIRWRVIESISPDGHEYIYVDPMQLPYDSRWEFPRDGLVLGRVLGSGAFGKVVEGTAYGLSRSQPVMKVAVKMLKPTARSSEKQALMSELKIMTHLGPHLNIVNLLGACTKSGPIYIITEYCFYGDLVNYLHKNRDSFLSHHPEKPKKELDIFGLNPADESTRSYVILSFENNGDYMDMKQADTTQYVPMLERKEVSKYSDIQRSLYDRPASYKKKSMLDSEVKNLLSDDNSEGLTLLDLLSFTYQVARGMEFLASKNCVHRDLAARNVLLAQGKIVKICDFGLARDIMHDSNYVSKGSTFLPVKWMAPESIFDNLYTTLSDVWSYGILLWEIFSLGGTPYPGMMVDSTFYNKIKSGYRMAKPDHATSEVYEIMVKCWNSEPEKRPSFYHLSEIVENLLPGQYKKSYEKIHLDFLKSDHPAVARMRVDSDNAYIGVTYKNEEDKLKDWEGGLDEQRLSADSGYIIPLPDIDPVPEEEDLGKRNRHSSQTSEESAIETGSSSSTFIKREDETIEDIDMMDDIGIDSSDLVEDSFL
The subject of test [5] is EOL1. The test is described as follows: Cell cycle arrest in human EOL-1 cells assessed as accumulation at S phase at 1 uM after 24 hrs by propidium iodide staining-based flow cytometry (reference value: 20.7%). Type of test: functional.
Test [6] has as its target Cyclin-dependent kinase 2/cyclin E1 (Homo sapiens, UniProt P24941). The experiment in a line: Inhibition of CDK2/cyclin E (unknown origin) expressed in baculovirus infected insect Sf9 cells using histone H1 as substrate in presence of [gamma-33P]ATP.
Test [7] concerns EOL1. The test is described as follows: Cell cycle arrest in human EOL-1 cells assessed as accumulation at S phase at 0.2 uM after 24 hrs by propidium iodide staining-based flow cytometry (reference value: 20.7%). Format: functional.
Test [8] relates to EOL1. The experiment in a line: Cell cycle arrest in human EOL-1 cells assessed as accumulation at sub-G1 phase at 0.04 uM after 24 hrs by propidium iodide staining-based flow cytometry (reference value: 20%). Format: functional.
Test [9] has as its system EOL1. The experiment in a line: Cell cycle arrest in human EOL-1 cells assessed as G1/G2-M ratio at GI50 concentration after 24 hrs by propidium iodide staining-based flow cytometry relative to control. Type of test: functional.
The subject of test [10] is HCC827. The test is described as follows: Cell cycle arrest in human HCC827 cells assessed as G1/G2-M ratio at GI50 concentration after 24 hrs by propidium iodide staining-based flow cytometry relative to control. Type of test: functional.
The test system of test [11] is HCC827. The experiment in a line: Cytotoxicity against human HCC827 cells assessed as growth inhibition after 72 hrs by calcein-AM dye based fluorescence assay. The settings on record: HCC827, 72 h. Format: functional.
Test [12] relates to EOL1. The test is described as follows: Cell cycle arrest in human EOL-1 cells assessed as accumulation at sub-G1 phase at 0.008 uM after 24 hrs by propidium iodide staining-based flow cytometry (reference value: 20%). Type of test: functional.
Test [13] concerns EOL1. The experiment in a line: Cell cycle arrest in human EOL-1 cells assessed as accumulation at G2/M phase at 0.2 uM after 24 hrs by propidium iodide staining-based flow cytometry (reference value: 18.4%). Format: functional.
Test [14] relates to EOL1. The test is described as follows: Cell cycle arrest in human EOL-1 cells assessed as accumulation at G1 phase at 0.2 uM after 24 hrs by propidium iodide staining-based flow cytometry (reference value: 60.9%). Format: functional.
For test [15], the system named is K562. The experiment in a line: Cytotoxicity against human K562 cells assessed as growth inhibition after 72 hrs by calcein-AM dye based fluorescence assay. Format: functional. The settings on record: K562, 72 h.
Test [16] concerns EOL1. The experiment in a line: Cell cycle arrest in human EOL-1 cells assessed as accumulation at G2/M phase at 1 uM after 24 hrs by propidium iodide staining-based flow cytometry (reference value: 18.4%). Type of test: functional.
In test [17] the test system is EOL1. The test is described as follows: Cell cycle arrest in human EOL-1 cells assessed as accumulation at sub-G1 phase at 0.2 uM after 24 hrs by propidium iodide staining-based flow cytometry (reference value: 20%). Format: functional.
The test system of test [18] is EOL1. The experiment in a line: Cell cycle arrest in human EOL-1 cells assessed as accumulation at G1 phase at 0.008 uM after 24 hrs by propidium iodide staining-based flow cytometry (reference value: 60.9%). Format: functional.
The subject of a further test is BT-474. The test is described as follows: Cytotoxicity against human BT474 cells assessed as growth inhibition after 72 hrs by calcein-AM dye based fluorescence assay. Type of test: functional. Conditions: BT-474, 72 h.
Test [19] relates to EOL1. The experiment in a line: Cell cycle arrest in human EOL-1 cells assessed as accumulation at G2/M phase at 0.04 uM after 24 hrs by propidium iodide staining-based flow cytometry (reference value: 18.4%). Type of test: functional.
The subject of test [20] is EOL1. The experiment in a line: Cytotoxicity against human EOL-1 cells assessed as growth inhibition after 72 hrs by calcein-AM dye based fluorescence assay. Type of test: functional. Conditions: EOL1, 72 h.
Test [21] deals with K562. The test is described as follows: Cell cycle arrest in human K562 cells assessed as G1/G2-M ratio at GI50 concentration after 24 hrs by propidium iodide staining-based flow cytometry relative to control. Type of test: functional.
The subject of test [22] is EOL1. The experiment in a line: Cell cycle arrest in human EOL-1 cells assessed as accumulation at sub-G1 phase at 1 uM after 24 hrs by propidium iodide staining-based flow cytometry (reference value: 20%). Format: functional.
Test [23] concerns EOL1. The test is described as follows: Cell cycle arrest in human EOL-1 cells assessed as accumulation at G1 phase at 0.04 uM after 24 hrs by propidium iodide staining-based flow cytometry (reference value: 60.9%). Type of test: functional.
Test [24] deals with EOL1. The experiment in a line: Cell cycle arrest in human EOL-1 cells assessed as accumulation at G1 phase at 1 uM after 24 hrs by propidium iodide staining-based flow cytometry (reference value: 60.9%). Format: functional.
For another test, the system named is MCF7. The test is described as follows: Cytotoxicity against human MCF7 cells assessed as growth inhibition after 72 hrs by calcein-AM dye based fluorescence assay. Type of test: functional. The settings on record: MCF7, 72 h.

As to `CC(C)CCn1cnc2c(Nc3cccc(Cl)c3)nc(N[C@H]3CC[C@H](N)CC3)nc21`, the Activity stood at 10.4% in the test with EOL1 [1]; 12.5% in the test with EOL1 [2]; 7.7% in the test on EOL1 [3]; 14.5% with EOL1 [5]; 10.6% in the test with EOL1 [7]; 36.5% in the test on EOL1 [8]. Also, the Activity in the test on EOL1 [12] is reported as 27.9%; with EOL1 [13] it was 3.1%; in the test with EOL1 [14], 86.3%; with EOL1 [16] it was 5.6%; in the test with EOL1 [17], 49.8%; with EOL1 [18], 77.1%. In addition, the Activity in the test on EOL1 [19] was 6.2%; in the test with EOL1 [22] it was 46.3%; in the test on EOL1 [23], 86.1%; in the test on EOL1 [24], 79.9%. Besides, the half-inhibitory concentration (IC50) (commonly the concentration that inhibits the measured activity by half) in [4] was found to be 0.066 µM; in test [6], 0.275 µM. In addition, the results for the Ratio in the test with EOL1 [9], with HCC827 [10] and with K562 [21] were 6, 1.33 and 1.1, respectively. For the same compound, the GI50 (commonly the concentration at which growth is held to half of that of the control) was 10.3 µM in the test with HCC827 [11]; 1.5 µM in the test with K562 [15]; 3.8 µM in the test with BT-474; 0.06 µM in the test on EOL1 [20]; 2.1 µM in the test with MCF7.
With `CC(C)=CCC/C(C)=C/Cn1cnc2c(Nc3cccc(Cl)c3)nc(N[C@H]3CC[C@H](N)CC3)nc21`, the half-inhibitory concentration (IC50) was 4.74 µM in test [4] and 7.17 µM in test [6]. The Ratio is reported as 1.13 in the test on EOL1 [9], 1.94 in the test with HCC827 [10] and 1.78 in the test on K562 [21]. The 50% growth inhibitory concentration (GI50) with HCC827 [11] was 18.2 µM; in the test with K562 [15] it was 2.2 µM; with BT-474 it was 4.3 µM; in the test on EOL1 [20], 0.59 µM; with MCF7, 3.6 µM.
Consider `CC(C)=CCn1cnc2c(Nc3cccc(Cl)c3)nc(N[C@H]3CC[C@H](N)CC3)nc21`, for which the results for the 50% inhibitory concentration (IC50) in test [4] and in test [6] were 0.187 µM and 0.227 µM, respectively. The figures for the Ratio with EOL1 [9], in the test on HCC827 [10] and in the test with K562 [21] were 3.1, 2.69 and 0.75, respectively. Also, the GI50 is 13.5 µM in the test on HCC827 [11]; 3.5 µM in the test with K562 [15]; 7 µM with BT-474; 0.08 µM with EOL1 [20]; 4.2 µM in the test on MCF7.
In the case of `CCCCn1cnc2c(NCc3cccc(Cl)c3)nc(N[C@H]3CC[C@H](N)CC3)nc21`, the IC50 in [4] was > 20 µM; in [6], 0.207 µM. For the same compound, the Ratio with EOL1 [9] turned out to be 0.99; in the test with HCC827 [10], 0.26; with K562 [21] it was 1.27. Further, the GI50 in the test on HCC827 [11] was 10.6 µM; in the test on K562 [15] it was 4.3 µM; in the test with BT-474, 4.7 µM; in the test on EOL1 [20] it was 0.35 µM; in the test with MCF7, 2.2 µM.
With `CCn1cnc2c(Nc3cccc(Cl)c3)nc(N[C@@H]3CCCC[C@@H]3N)nc21`, the 50% inhibitory concentration (IC50) in [4] was > 20 µM; in test [6], 0.017 µM. In addition, the results for the Ratio with EOL1 [9], in the test on HCC827 [10] and in the test with K562 [21] were 1.28, 0.29 and 0.48, respectively. The GI50 with HCC827 [11] is 12.2 µM; in the test with K562 [15], 4.8 µM; with BT-474, 5.4 µM; in the test on EOL1 [20], 0.99 µM; in the test on MCF7 it was 3.3 µM.
Turning to `CCCCn1cnc2c(Nc3ccc(Cl)cc3)nc(N[C@H]3CC[C@H](N)CC3)nc21`, the IC50 in [4] was found to be 0.06 µM; in test [6] it was 0.117 µM. For the same compound, the Ratio in the test on EOL1 [9] is reported as 6.43; in the test on HCC827 [10] it was 0.28; in the test on K562 [21], 1.52. Further, the concentration for 50% growth inhibition (GI50) in the test on HCC827 [11] is 10.8 µM; in the test with K562 [15], 2.7 µM; in the test with BT-474, 7.3 µM; with EOL1 [20], 0.05 µM; in the test with MCF7, 2.1 µM.
